Assay results published in ChEMBL document CHEMBL5532680, “Identification of a Sonically Activated Degrader of Methionine Adenosyltransferase 2A by an in Silico Approach Assisted with the Hole-Electron Analysis” (J Med Chem, 2024).
Calls of active or inactive are those of the source. The calls are words filed in the database; no cut-off is given here.

How the values were obtained:
[1] = Toxicity in BALB/c mouse xenografted with human HCT-116 cells assessed as heart damage at 10 mg/kg, po by H and E staining based assay; format: organism-based; conditions: in vivo
[2] = Toxicity in BALB/c mouse xenografted with human HCT-116 cells assessed as liver damage at 10 mg/kg, po by H and E staining based assay; format: organism-based; conditions: in vivo
[3] = AUC(0 to 24 hrs) in BALB/c mouse at 10 mg/kg, po measured upto 24 hrs by LC-MS/MS analysis; format: ADME, organism-based; conditions: in vivo
[4] = Toxicity in BALB/c mouse xenografted with human HCT-116 cells assessed as change in liver cell nucleus shape at 100 mg/kg, po by H and E staining based assay; format: organism-based; conditions: in vivo
[5] = Half-life in ICR mouse at 10 mg/kg, po measured upto 24 hrs by LC-MS/MS analysis; format: ADME, organism-based; conditions: in vivo
[6] = system: HCT-116; assay: Induction of ROS generation in human HCT-116 cells at 0.001 to 1 uM incubated for 6 hrs by DCFH-DA staining based flow cytometry analysis; format: functional, cell-based; conditions: dose 0.001-1 µM
[7] = Biodistribution in MATP knocked out human HCT-116 cells xenografted in BALB/c mouse assessed as fluorescence intensity in lung at 10 mg/kg, po measured after 24 hrs; format: ADME, organism-based; conditions: in vivo
[8] = Tmax in BALB/c mouse at 10 mg/kg, po measured upto 24 hrs by LC-MS/MS analysis; format: ADME, organism-based; conditions: in vivo
[9] = molecular target: T1, S-adenosylmethionine synthase isoform type-2 (Homo sapiens, UniProt P31153); assay: Induction of MAT2A degradation in human HCT-116 cells assessed as MAT2A level at 0.1 uM preincubated for 4 hrs followed by 1.0 MHz, 0.8W/cm2 ultrasound treatment for 4 mins by Western blotting assay; format: cell-based; conditions: time 244.0 min
[10] = Toxicity in BALB/c mouse xenografted with human HCT-116 cells assessed as lung damage at 10 mg/kg, po by H and E staining based assay; format: organism-based; conditions: in vivo
[11] = Volume of distribution at steady state in ICR mouse at 1 mg/kg, iv measured upto 24 hrs by LC-MS/MS analysis; format: ADME, organism-based; conditions: in vivo, read-out: Vdss
[12] = Drug metabolism in BALB/c mouse blood after 24 hrs; format: ADME, tissue-based
[13] = molecular target: Voltage-gated inwardly rectifying potassium channel KCNH2 (Homo sapiens, UniProt Q12809); assay: Inhibition of hERG by plate based patch clamp method; format: toxicity
[14] = system: HCT-116; assay: Antiproliferative activity against wild type human HCT-116 cells at less than 1 uM incubated for 5 days by MTT method; format: functional, cell-based; conditions: time 5.0 day
[15] = AUC in ICR mouse at 1 mg/kg, iv measured upto 24 hrs by LC-MS/MS analysis; format: ADME, organism-based; conditions: in vivo
[16] = system: HCT-116; assay: Antiproliferative activity against wild type human HCT-116 cells preincubated with AG-270 followed by compound addition; format: functional, cell-based
[17] = system: HCT-116; assay: Antiproliferative activity against MTAP knocked out human HCT-116 cells incubated for 5 days by MTT method relative to control; format: functional; conditions: time 5 day
[18] = molecular target: T1, S-adenosylmethionine synthase isoform type-2; assay: Induction of MAT2A degradation in human HCT-116 cells assessed as degradation maximum at higher than 1 uM preincubated for 4 hrs followed by 1.0 MHz, 0.8W/cm2 ultrasound treatment for 0.5 mins by Western blotting assay relative to control; format: cell-based; conditions: time 240.5 min
[19] = system: HCT-116; assay: Antitumor activity against […] knocked out human HCT-116 cells xenografted in BALB/c mouse assessed as tumor growth inhibition at 100 mg/kg, po administered once a day for 6 hrs and measured after 3 weeks; format: functional; conditions: HCT-116, 504 h, read-out: TGI
[20] = Toxicity in BALB/c mouse xenografted with human HCT-116 cells assessed as kidney damage at 10 mg/kg, po by H and E staining based assay; format: organism-based; conditions: in vivo
[21] = molecular target: T1, S-adenosylmethionine synthase isoform type-2; assay: Induction of MAT2A degradation in human HCT-116 cells incubated for 4 hrs by Western blotting assay; format: cell-based
[22] = Biodistribution in MATP knocked out human HCT-116 cells xenografted in BALB/c mouse assessed as fluorescence intensity in tumor at 10 mg/kg, po measured after 24 hrs; format: ADME, organism-based; conditions: in vivo
[23] = molecular target: Cytochrome P450 2C9 (Homo sapiens, UniProt P11712); assay: Inhibition of CYP2C9 (unknown origin); format: ADME
[24] = Cmax in BALB/c mouse at 10 mg/kg, po measured upto 24 hrs by LC-MS/MS analysis; format: ADME, organism-based; conditions: in vivo
[25] = Inhibition of uridine glucuronyl transferase (unknown origin); set-up: species or system Homo sapiens
[26] = Toxicity in BALB/c mouse xenografted with human HCT-116 cells assessed as spleen damage at 10 mg/kg, po by H and E staining based assay; format: organism-based; conditions: in vivo
[27] = system: HCT-116; assay: Antitumor activity against […] knocked out human HCT-116 cells xenografted in BALB/c mouse assessed as tumor growth inhibition at 10 mg/kg, po administered once a day followed by 4 mins sonication post 6 hrs of compound administration and measured for 3 weeks; format: functional; conditions: HCT-116, 504 h, read-out: TGI
[28] = system: HCT-116; assay: Induction of apoptosis in MTAP knocked out human HCT-116 cells at 0.1 uM preincubated for 24 hrs followed by sonication for 4 mins by annexin V-FITC/PI staining based flow cytometry analysis relative to control; format: functional, cell-based; conditions: time 1444.0 min
[29] = system: HCT-116; assay: Antiproliferative activity against MTAP knocked out human HCT-116 cells under 1 min sonication; format: functional, cell-based; conditions: HCT-116, 1 min
[30] = Toxicity in BALB/c mouse xenografted with human HCT-116 cells assessed as inflammatory cells infiltration at 50 mg/kg, po by H and E staining based assay; format: organism-based; conditions: in vivo
[31] = Oral bioavailability in ICR mouse at 10 mg/kg measured upto 24 hrs by LC-MS/MS analysis; format: ADME, organism-based; conditions: in vivo
[32] = system: HCT-116; assay: Antitumor activity against […] knocked out human HCT-116 cells xenografted in BALB/c mouse assessed as reduction in tumor weight at 10 mg/kg, po administered once a day followed by 4 mins sonication post 6 hrs of compound administration and measured for 3 weeks; format: functional, organism-based
[33] = Oral bioavailability in BALB/c mouse at 10 mg/kg measured upto 24 hrs by LC-MS/MS analysis; format: ADME, organism-based; conditions: in vivo
[34] = Toxicity in BALB/c mouse xenografted with human HCT-116 cells assessed as lung damage at 100 mg/kg, po by H and E staining based assay; format: organism-based; conditions: in vivo
[35] = Biodistribution in MATP knocked out human HCT-116 cells xenografted in BALB/c mouse assessed as fluorescence intensity in spleen at 10 mg/kg, po measured after 24 hrs; format: ADME, organism-based; conditions: in vivo
[36] = system: HCT-116; assay: Antitumor activity against […] knocked out human HCT-116 cells xenografted in BALB/c mouse assessed as tumor growth inhibition at 50 mg/kg, po administered once a day for 6 hrs and measured after 3 weeks; format: functional; conditions: HCT-116, 504 h, read-out: TGI
[37] = Cmax in ICR mouse at 10 mg/kg, po measured upto 24 hrs by LC-MS/MS analysis; format: ADME, organism-based; conditions: in vivo
[38] = system: HCT-116; assay: Antiproliferative activity against MTAP knocked out human HCT-116 cells under 4 mins sonication; format: functional, cell-based; conditions: HCT-116, 4 min
[39] = Biodistribution in MATP knocked out human HCT-116 cells xenografted in BALB/c mouse assessed as fluorescence intensity in liver at 10 mg/kg, po measured after 24 hrs; format: ADME, organism-based; conditions: in vivo

T1 sequence (P31153 whole entry, looked up, canonical isoform): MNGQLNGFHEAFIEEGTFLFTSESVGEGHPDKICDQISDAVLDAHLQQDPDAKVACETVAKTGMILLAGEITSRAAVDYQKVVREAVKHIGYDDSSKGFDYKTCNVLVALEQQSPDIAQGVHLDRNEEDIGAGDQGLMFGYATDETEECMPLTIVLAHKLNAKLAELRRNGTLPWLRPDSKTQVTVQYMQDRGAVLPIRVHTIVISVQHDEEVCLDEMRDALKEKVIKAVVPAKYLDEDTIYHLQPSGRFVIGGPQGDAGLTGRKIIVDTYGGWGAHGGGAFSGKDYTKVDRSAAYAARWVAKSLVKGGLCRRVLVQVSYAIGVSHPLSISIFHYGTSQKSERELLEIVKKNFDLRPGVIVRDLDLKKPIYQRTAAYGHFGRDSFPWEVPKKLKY
Chain of Cytochrome P450 2C9 (P11712 whole entry): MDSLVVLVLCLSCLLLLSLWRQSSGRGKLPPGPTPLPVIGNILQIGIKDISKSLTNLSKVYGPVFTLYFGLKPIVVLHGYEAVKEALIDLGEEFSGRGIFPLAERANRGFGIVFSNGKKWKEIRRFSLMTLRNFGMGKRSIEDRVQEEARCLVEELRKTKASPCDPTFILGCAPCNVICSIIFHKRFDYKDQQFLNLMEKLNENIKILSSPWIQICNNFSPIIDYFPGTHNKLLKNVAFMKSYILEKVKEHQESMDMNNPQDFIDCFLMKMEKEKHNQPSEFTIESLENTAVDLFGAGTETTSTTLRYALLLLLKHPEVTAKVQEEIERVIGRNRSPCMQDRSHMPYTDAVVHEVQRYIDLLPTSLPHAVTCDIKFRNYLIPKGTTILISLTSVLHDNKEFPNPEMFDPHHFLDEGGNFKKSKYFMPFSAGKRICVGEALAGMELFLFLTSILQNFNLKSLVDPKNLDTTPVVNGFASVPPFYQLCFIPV
Chain of Voltage-gated inwardly rectifying potassium channel KCNH2 (Q12809 whole entry): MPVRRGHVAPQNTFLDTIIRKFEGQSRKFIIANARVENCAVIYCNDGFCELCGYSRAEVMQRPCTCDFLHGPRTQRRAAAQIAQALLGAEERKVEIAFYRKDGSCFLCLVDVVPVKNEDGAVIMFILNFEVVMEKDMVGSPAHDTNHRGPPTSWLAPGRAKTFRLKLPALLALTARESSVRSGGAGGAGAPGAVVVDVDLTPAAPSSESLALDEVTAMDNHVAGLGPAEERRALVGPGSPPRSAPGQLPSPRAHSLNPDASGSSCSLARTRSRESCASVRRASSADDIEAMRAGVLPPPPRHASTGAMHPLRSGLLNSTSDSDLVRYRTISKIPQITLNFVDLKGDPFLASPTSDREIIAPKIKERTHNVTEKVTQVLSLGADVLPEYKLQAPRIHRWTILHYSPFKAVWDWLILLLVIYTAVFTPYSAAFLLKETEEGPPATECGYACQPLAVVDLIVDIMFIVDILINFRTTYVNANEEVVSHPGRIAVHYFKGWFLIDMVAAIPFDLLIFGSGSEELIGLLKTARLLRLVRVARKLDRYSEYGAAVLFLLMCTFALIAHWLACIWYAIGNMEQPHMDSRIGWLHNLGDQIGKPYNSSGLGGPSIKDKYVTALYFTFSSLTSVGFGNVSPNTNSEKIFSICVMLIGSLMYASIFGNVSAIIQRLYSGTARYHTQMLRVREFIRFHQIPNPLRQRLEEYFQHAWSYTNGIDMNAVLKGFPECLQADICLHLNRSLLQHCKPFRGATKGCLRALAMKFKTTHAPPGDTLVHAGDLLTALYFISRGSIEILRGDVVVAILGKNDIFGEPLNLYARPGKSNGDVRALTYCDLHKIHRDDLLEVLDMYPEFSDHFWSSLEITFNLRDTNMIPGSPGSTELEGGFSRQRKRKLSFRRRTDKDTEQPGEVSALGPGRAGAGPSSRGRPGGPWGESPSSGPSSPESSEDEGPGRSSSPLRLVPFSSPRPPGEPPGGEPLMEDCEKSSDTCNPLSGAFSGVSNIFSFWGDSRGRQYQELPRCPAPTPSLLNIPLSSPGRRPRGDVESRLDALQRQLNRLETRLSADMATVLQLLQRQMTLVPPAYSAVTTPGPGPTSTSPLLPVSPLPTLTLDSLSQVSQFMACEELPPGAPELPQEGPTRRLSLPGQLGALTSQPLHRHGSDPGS

AUC [3]: 9714 ng·h/mL
half-life [5]: 174 min
Drug uptake [7]: Active
Tmax [8]: 1 h
Activity [9]: 13%
Vd [11]: 3.47 L/kg
Drug metabolism [12]: Metabolite_Detected
AUC [15]: 1267 ng·h/mL
Emax [18]: 76%
Activity [21]: inactive
Drug uptake [22]: Active
IC50 [23]: 31 µM
Cmax [24]: 1380 ng/mL
IC50 [25]: 800 nM
IC50 [29]: 79 nM
bioavailability [31]: 77%
F [33]: 77%
Drug uptake [35]: Not Active
Cmax [37]: 1380 ng/mL
IC50 [38]: 42 nM
Drug uptake [39]: Active
SMILES: CCOc1ncc2cc(-c3ccc4c(c3)N3CCCC3CO4)c(=O)n(-c3ccc(OC(F)F)cc3)c2n1 (centres undefined)
Activity [1]: Non-Toxic
Activity [2]: Non-Toxic
Activity [4]: Toxic
Activity [6]: Active
Activity [10]: Non-Toxic
IC50 [13]: > 50 µM
Activity [14]: inactive
Activity [16]: inactive
Activity [17]: 92%
inhibition in vivo at 100 mg/kg [19]: 96.5%
Activity [20]: Non-Toxic
Activity [26]: Non-Toxic
inhibition in vivo at 10 mg/kg [27]: 103%
Activity [28]: Active
Activity [30]: Toxic
Activity [32]: Active
Activity [34]: Non-Toxic
inhibition in vivo at 50 mg/kg [36]: 93.5%
